For 32 molecules, IC50 results are on record in patent US9174984B2, “Chemical compounds” (GlaxoSmithKline Intellectual Property (No. 2) Limited, priority 2011, dated 2015).

The assay has as its target T1, Human DNMT3b/3L (Homo sapiens, UniProt Q9UBC3).
T1 construct: truncated 3b (catalytic domain)
Description: DNMT inhibition assay (3H-SAM filter-binding) against DNMT3b/3L. In kind it is biochemical. The conditions noted are these: read-out: IC50 against DNMT 3b/3L. Here is the method:
DNMT Assays Used for Examples 1-114
Human DNMT3b/3L was coexpressed using truncated 3b (catalytic domain) and 3L (DNA binding domain) at GSK. Human full-length DNMT1 enzyme purchased from BPS Biosciences. Poly(dIdC) DNA (Sigma) was used at 0.002 mg/mL. Tritiated SAM (Perkin Elmer) was used at 500 nM. DNA, DNMT enzyme, and inhibitors were mixed with assay buffer (20 mM Tris pH8, 5% glycerol, 1 mM EDTA, 100 μg/mL BSA, 1 mM DTT, 50 mM NaCl) and pre-incubated without SAM for 30 min. H3 SAM was then added to initiate the methylation reaction which continues at 37° C. for 1 h. Reaction mixture was then transferred to a filter plate (Millipore Multiscreen HTS DE), then washed with 50 mM H2PO4 and 95% Ethanol. Scintillation counts were measured on the Perkin Elmer Microbeta scintillation counter.
DNMT Assays Used for Examples 115-120
DNMT enzymes were produced by GlaxoSmithKline. Human DNMT3b/3L was coexpressed using truncated 3b (catalytic domain) and 3L (DNA binding domain). DNMT1 was human, full-length protein. 3H-SAM was purchased from Perkin Elmer. Custon DNA oligonucleotide substrates were purchased from Integrated DNA technologies.
28-mer DNA Oligonucleotide Duplex (for DNMT3b/3L)
DNMT enzyme was preincubated with compound for 1 hr at RT, after which SAM and DNA were added to initiate the methylation reaction. The methylation reaction was quenched after 20 min upon the addition of >100 fold excess non-radioactive SAM. The quenched reaction mixture (80%) was transferred to a DEAE filter binding plate (Millipore Multiscreen HTS DE), washed with 3 volumes of 50 mM phosphate buffer and dried. Scintillation cocktail (MicroScint-20) was added to the plate and radioactivity (3H-DNA) was measured using a Perkin Elmer TopCount scintillation counter.
Final reagent concentrations (prior to quench) consisted of the following:
DNMT3b/3L (10 nM), 200 nM DNA, 200 nM 3H-SAM in 20 mM Tris (pH 8), 1 mM DTT, 1 mM EDTA, 25 mM NaCl, 1 mM CHAPS and 2% DMSO.

The mark [1] stands for this setting: at least one experimental run or average of several runs, Examples 1-114 and 115-120 use different protocols.

Molecules are shown by their SMILES. Like-named read-outs stand apart in the source and are kept apart here. Where only a bound is given, the exact number is not on record here.

`O=C(C#Cc1ccccc1)Nc1cccc(CNC(=O)NCc2ccnc3[nH]ccc23)c1` [Example 1, N-(3-((3-((1H-Pyrrolo[2,3-b]pyridin-4-yl)methyl)ureido)methyl)phenyl)-3-phenylpropiolamide]: the IC50 was at most 1000 nM.

For `O=C(C#Cc1ccccc1)NCc1ccccc1CNC(=O)NCc1ccnc2[nH]ccc12` [Example 21, N-(2-((3-((1H-pyrrolo[2,3-b]pyridin-4-yl)methyl)ureido)methyl)benzyl)-3-phenylpropiolamide], the IC50 is at most 1000 nM. For `NCc1cccc(NC(=S)NCc2ccnc3[nH]ccc23)c1` [Example 9, 1-((1H-Pyrrolo[2,3-b]pyridin-4-yl)methyl)-3-(3-(aminomethyl)phenyl)thiourea], the IC50 is at most 20000 nM. With `NCC(=O)Nc1cccc(CNC(=S)NCc2ccnc3[nH]ccc23)c1` [Example 112, N-(3-((3-((1H-Pyrrolo[2,3-b]pyridin-4-yl)methyl)thioureido)methyl)phenyl)-2-aminoacetamide], the IC50 under setting [1] was at most 20000 nM. On to `O=C(C#Cc1ccccc1)Nc1cccc(CNC(=O)NCc2ccnc3[nH]cc(Br)c23)c1` [Example 63, N-(3-((3-((3-bromo-1H-pyrrolo[2,3-b]pyridin-4-yl)methyl)ureido)methyl)phenyl)-3-phenylpropiolamide], for which the IC50 was at most 1000 nM. For `O=C(NCc1ccccc1-c1cscn1)NCc1ccnc2[nH]ccc12` [Example 120, 1-((1H-pyrrolo[2,3-b]pyridin-4-yl)methyl)-3-(2-(thiazol-4-yl)benzyl)urea], under setting [1], the IC50 is at most 1000 nM. Regarding `O=C(C#Cc1ccccc1)Nc1cccc(CNC(=O)NCc2ccnc3[nH]cc(F)c23)c1` [Example 62, N-(3-((3-((3-fluoro-1H-pyrrolo[2,3-b]pyridin-4-yl)methyl)ureido)methyl)phenyl)-3-phenylpropiolamide], the IC50 was at most 1000 nM. For `CC#CC(=O)Nc1cccc(CN/C(=N\C#N)NCc2ccnc3[nH]ccc23)c1` [Example 14, (E)-N-(3-((3-((1H-Pyrrolo[2,3-b]pyridin-4-yl)methyl)-2-cyanoguanidino)methyl)phenyl)but-2-ynamide], the IC50 under setting [1] was at most 20000 nM. For the molecule `CC#CC(=O)Nc1cccc(CNC(=O)NCc2ccnc3[nH]ccc23)c1` [Example 3, N-(3-((3-((1H-Pyrrolo[2,3-b]pyridin-4-yl)methyl)ureido)methyl)phenyl)but-2-ynamide], the IC50 is at most 1000 nM. Regarding `O=C(C#Cc1ccccc1)Nc1cccc(CNC(=N[N+](=O)[O-])NCc2ccnc3[nH]ccc23)c1` [Example 24, N-(3-((3-((1H-pyrrolo[2,3-b]pyridin-4-yl)methyl)-2-nitroguanidino)methyl)phenyl)-3-phenylpropiolamide], the IC50 under setting [1] was at most 1000 nM. With `O=C(NCc1ccnc2[nH]ccc12)NC1CCN(C(=O)C#Cc2ccccc2)C1` (centres unmarked) [Example 58, 1-((1H-pyrrolo[2,3-b]pyridin-4-yl)methyl)-3-(1-(3-phenylpropioloyl)pyrrolidin-3-yl)urea], the IC50 is at most 1000 nM. On the same count and under the same terms, then `O=C(C#Cc1ccccc1)NCc1ccccc1CNC(=S)NCc1ccnc2[nH]ccc12` [Example 56, N-(2-((3-((1H-pyrrolo[2,3-b]pyridin-4-yl)methyl)thioureido)methyl)benzyl)-3-phenylpropiolamide], with at most 1000 nM.

In the case of `O=C(CCBr)Nc1cccc(CNC(=S)NCc2ccnc3[nH]ccc23)c1` [Example 36, N-(3-((3-((1H-pyrrolo[2,3-b]pyridin-4-yl)methyl)thioureido)methyl)phenyl)-3-bromopropanamide], the IC50 under setting [1] was at most 20000 nM.

For `O=C(C#Cc1ccccc1)Nc1cccc(CCC(=O)NCc2ccnc3[nH]ccc23)c1` [Example 19, N-(3-(3-(((1H-pyrrolo[2,3-b]pyridin-4-yl)methyl)amino)-3-oxopropyl)phenyl)-3-phenylpropiolamide], the IC50 was at most 1000 nM. In the case of `O=C(C#CC1CCCC1)Nc1cccc(CNC(=O)NCc2ccnc3[nH]ccc23)c1` [Example 118, N-(3-((3-((1H-pyrrolo[2,3-b]pyridin-4-yl)methyl)ureido)methyl)phenyl)-3-cyclopentylpropiolamide], the IC50 under setting [1] was at most 1000 nM. Turning to `C=CC(=O)Nc1cc(CNC(=S)NCc2ccnc3[nH]ccc23)ccc1Cl` [Example 76, N-(5-((3-((1H-pyrrolo[2,3-b]pyridin-4-yl)methyl)thioureido)methyl)-2-chlorophenyl)acrylamide], the IC50 under setting [1] was at most 1000 nM. As to `O=C(C#Cc1ccccc1)NCCCNC(=O)NCc1ccnc2[nH]ccc12` [Example 17, N-(3-(3-((1H-pyrrolo[2,3-b]pyridin-4-yl)methyl)ureido)propyl)-3-phenylpropiolamide], the IC50 is at most 10000 nM. Still for that read-out and setting: then `O=C(C#Cc1ccccc1)Nc1cccc(CNC(=O)NCc2ccnc3[nH]cc(Cl)c23)c1` [Example 53, N-(3-((3-((3-chloro-1H-pyrrolo[2,3-b]pyridin-4-yl)methyl)ureido)methyl)phenyl)-3-phenylpropiolamide], with at most 1000 nM. In the case of `O=C(C#Cc1ccccc1)NCCNS(=O)(=O)NCc1ccnc2[nH]ccc12` [Example 50, N-(2-((N-((1H-pyrrolo[2,3-b]pyridin-4-yl)methyl)sulfamoyl)amino)ethyl)-3-phenylpropiolamide], the IC50 under setting [1] is at most 10000 nM. As for `O=C(NCc1ccnc2[nH]cc(Cl)c12)NC1CCN(C(=O)C#Cc2ccccc2)C1` (centres unmarked) [Example 64, 1-((3-chloro-1H-pyrrolo[2,3-b]pyridin-4-yl)methyl)-3-(1-(3-phenylpropioloyl)pyrrolidin-3-yl)urea], the IC50 is at most 10000 nM. For the molecule `O=C(NCc1ccnc2[nH]ccc12)NC1CN(C(=O)C#Cc2ccccc2)C1` [Example 57, 1-((1H-pyrrolo[2,3-b]pyridin-4-yl)methyl)-3-(1-(3-phenylpropioloyl)azetidin-3-yl)urea], the IC50 is at most 1000 nM.

For `CN(CCNC(=O)NCc1ccnc2[nH]ccc12)C(=O)C#Cc1ccccc1` [Example 20, N-(2-(3-((1H-pyrrolo[2,3-b]pyridin-4-yl)methyl)ureido)ethyl)-N-methyl-3-phenylpropiolamide], the IC50 was at most 10000 nM. For `S=C(NCc1ccccc1-c1nccs1)NCc1ccnc2[nH]ccc12` [Example 111, 1-((1H-Pyrrolo[2,3-b]pyridin-4-yl)methyl)-3-(2-(thiazol-2-yl)benzyl)thiourea], the IC50 under setting [1] is at most 10000 nM. For the molecule `S=C(NCc1ccccc1-c1cocn1)NCc1ccnc2[nH]ccc12` [Example 115, 1-((1H-pyrrolo[2,3-b]pyridin-4-yl)methyl)-3-(2-(oxazol-4-yl)benzyl)thiourea], under setting [1], the IC50 was at most 1000 nM. For `Nc1cccc(CNC(=O)NCc2ccnc3[nH]cc(Cl)c23)c1` [Example 52, 1-(3-aminobenzyl)-3-((3-chloro-1H-pyrrolo[2,3-b]pyridin-4-yl)methyl)urea], under setting [1], the IC50 is 7100 nM. In the case of `CN(C(=O)C#Cc1ccccc1)c1cccc(CNC(=S)NCc2ccnc3[nH]ccc23)c1` [Example 117, N-(3-((3-((1H-pyrrolo[2,3-b]pyridin-4-yl)methyl)thioureido)methyl)phenyl)-N-methyl-3-phenylpropiolamide], the IC50 under setting [1] was at most 10000 nM. Take `N#C/N=C(\NCCNC(=O)C#Cc1ccccc1)NCc1ccnc2[nH]ccc12` [Example 15, (Z)—N-(2-(3-((1H-Pyrrolo[2,3-b]pyridin-4-yl)methyl)-2-cyanoguanidino)ethyl)-3-phenylpropiolamide]: the IC50 was at most 10000 nM. Consider `O=C(C#Cc1ccccc1)NCCCNS(=O)(=O)NCc1ccnc2[nH]ccc12` [Example 49, N-(3-((N-((1H-pyrrolo[2,3-b]pyridin-4-yl)methyl)sulfamoyl)amino)propyl)-3-phenylpropiolamide], for which the IC50 under setting [1] was at most 1000 nM. On to `C=CC(=O)Nc1ccccc1CNS(=O)(=O)NCc1ccnc2[nH]ccc12` [Example 39, N-(2-(((N-((1H-pyrrolo[2,3-b]pyridin-4-yl)methyl)sulfamoyl)amino)methyl)phenyl)acrylamide], for which the IC50 under setting [1] was at most 10000 nM. For the molecule `O=C(C#Cc1ccccc1)NCc1ccccc1CNS(=O)(=O)NCc1ccnc2[nH]ccc12` [Example 55, N-(2-(((N-((1H-pyrrolo[2,3-b]pyridin-4-yl)methyl)sulfamoyl)amino)methyl)benzyl)-3-phenylpropiolamide], the IC50 was at most 1000 nM. As to `O=C(NCc1ccnc2[nH]ccc12)NC1CN(C(=O)C#CC2CCCCC2)C1` [Example 119, 1-((1H-pyrrolo[2,3-b]pyridin-4-yl)methyl)-3-(1-(3-cyclohexylpropioloyl)azetidin-3-yl)urea], the IC50 under setting [1] is at most 1000 nM. For `C=CC(=O)Nc1ccc(C(F)(F)F)cc1CNC(=S)NCc1ccnc2[nH]ccc12` [Example 33, N-(2-((3-((1H-pyrrolo[2,3-b]pyridin-4-yl)methyl)thioureido)methyl)-4-(trifluoromethyl)phenyl)acrylamide], the IC50 under setting [1] is at most 20000 nM.
